According to paper PMC6934184, “Selective DNA-PKcs inhibition extends the therapeutic index of localized radiotherapy and chemotherapy” (The Journal of Clinical Investigation, 2019):

Target: T1, ZAP70 (Homo sapiens, UniProt P43403)
T1 construct: purchased Thermo Fisher Scientific (Life Technologies) SelectScreen
Assay: SelectScreen Z'LYTE
Type: biochemical
Method in brief: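 Compound tested in SelectScreen activity assays, Z'LYTE for CSF1R, CDK1/cyclin B and MAP2K6 and Adapta for CAMK1. ATP for CAMK1 was listed as 10, and Km app was used for CSF1R. Results are expressed in percent.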

T1 sequence (P43403 whole entry): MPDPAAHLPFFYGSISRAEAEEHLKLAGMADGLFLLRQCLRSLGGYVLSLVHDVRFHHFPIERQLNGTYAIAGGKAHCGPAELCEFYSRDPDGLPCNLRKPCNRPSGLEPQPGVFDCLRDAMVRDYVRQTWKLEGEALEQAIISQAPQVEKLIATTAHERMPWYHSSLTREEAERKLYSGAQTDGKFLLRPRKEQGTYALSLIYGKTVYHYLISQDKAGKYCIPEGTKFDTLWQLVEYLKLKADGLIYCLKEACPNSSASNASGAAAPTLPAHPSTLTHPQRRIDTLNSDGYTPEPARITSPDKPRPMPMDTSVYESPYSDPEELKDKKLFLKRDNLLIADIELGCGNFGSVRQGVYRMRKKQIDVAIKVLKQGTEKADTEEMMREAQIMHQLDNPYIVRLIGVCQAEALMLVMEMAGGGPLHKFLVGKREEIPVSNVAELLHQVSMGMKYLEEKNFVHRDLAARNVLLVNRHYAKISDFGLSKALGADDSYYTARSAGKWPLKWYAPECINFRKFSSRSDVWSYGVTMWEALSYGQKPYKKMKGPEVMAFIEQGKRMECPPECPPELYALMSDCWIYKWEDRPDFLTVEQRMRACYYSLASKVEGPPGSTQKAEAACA

## CN(C(=O)CN1CCOCC1)c1ccc2sc3c(-c4cccc5c(=O)cc(N6CC7CCC(C6)O7)oc45)cccc3c2c1 [NU5455]
  inhibition at 1 µM: 0.3%
